According to paper PMC5564600 (Oncotarget, 2017):

Legend:
Assay in all cases: biochemical
Type in all cases: binding
[1] = molecular target: T1, panel of 442 kinases (Homo sapiens, UniProt Q13873); settings: BMPR2; for remaining activity at 1 µM: read-out: % of control at 1 µM
T1 construct: purchased Ambit Biosciences (scanMAXX KINOMEscan)
T1 sequence (Q13873 27-1038): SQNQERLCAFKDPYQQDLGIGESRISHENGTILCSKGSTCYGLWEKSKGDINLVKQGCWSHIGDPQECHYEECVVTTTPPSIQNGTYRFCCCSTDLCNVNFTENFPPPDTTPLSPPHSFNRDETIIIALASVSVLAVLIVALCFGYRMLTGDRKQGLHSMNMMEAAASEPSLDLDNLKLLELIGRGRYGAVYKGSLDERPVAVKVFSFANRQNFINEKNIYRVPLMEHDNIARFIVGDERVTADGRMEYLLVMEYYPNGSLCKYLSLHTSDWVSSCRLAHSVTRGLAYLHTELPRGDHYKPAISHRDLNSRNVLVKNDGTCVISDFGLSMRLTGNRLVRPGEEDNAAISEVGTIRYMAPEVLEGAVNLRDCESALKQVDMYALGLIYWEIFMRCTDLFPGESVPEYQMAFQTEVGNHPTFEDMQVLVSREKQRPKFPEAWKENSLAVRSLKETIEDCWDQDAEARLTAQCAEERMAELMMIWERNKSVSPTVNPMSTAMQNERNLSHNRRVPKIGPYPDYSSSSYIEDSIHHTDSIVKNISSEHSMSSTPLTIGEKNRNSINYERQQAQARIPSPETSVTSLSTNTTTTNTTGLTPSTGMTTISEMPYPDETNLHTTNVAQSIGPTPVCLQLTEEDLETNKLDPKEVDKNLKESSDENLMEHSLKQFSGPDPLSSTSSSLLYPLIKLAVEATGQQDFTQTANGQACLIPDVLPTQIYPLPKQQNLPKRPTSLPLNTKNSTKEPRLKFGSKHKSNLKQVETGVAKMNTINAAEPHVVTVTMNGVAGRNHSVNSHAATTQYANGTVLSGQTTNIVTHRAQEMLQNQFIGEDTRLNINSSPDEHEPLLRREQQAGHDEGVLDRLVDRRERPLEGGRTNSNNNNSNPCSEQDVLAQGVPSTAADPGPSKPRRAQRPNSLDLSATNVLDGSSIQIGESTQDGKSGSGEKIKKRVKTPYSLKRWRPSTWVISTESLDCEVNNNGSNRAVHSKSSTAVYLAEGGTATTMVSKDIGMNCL

[2] = molecular target: T2, panel of 442 kinases (Homo sapiens, UniProt Q8N5S9); settings: CAMKK1; for remaining activity at 1 µM: read-out: % of control at 1 µM
T2 construct: purchased Ambit Biosciences (scanMAXX KINOMEscan)

[3] = molecular target: T3, panel of 442 kinases (Homo sapiens, UniProt P19784); settings: CSNK2A2; for remaining activity at 1 µM: read-out: % of control at 1 µM
T3 construct: purchased Ambit Biosciences (scanMAXX KINOMEscan)

[4] = molecular target: T4, panel of 442 kinases (Homo sapiens, UniProt P00533, L858R/T790M); settings: EGFR(L858R,T790M); for remaining activity at 1 µM: read-out: % of control at 1 µM
T4 construct: purchased Ambit Biosciences (scanMAXX KINOMEscan)

[5] = molecular target: T5, panel of 442 kinases (Homo sapiens, UniProt Q9Y5S2); settings: kinase MRCKB; for remaining activity at 1 µM: read-out: % of control at 1 µM
T5 construct: purchased Ambit Biosciences (scanMAXX KINOMEscan)

[6] = molecular target: T6, panel of 442 kinases (Homo sapiens, UniProt Q8WTQ7); settings: kinase GRK7; for remaining activity at 1 µM: read-out: % of control at 1 µM
T6 construct: purchased Ambit Biosciences (scanMAXX KINOMEscan)
T6 sequence (Q8WTQ7 1-553): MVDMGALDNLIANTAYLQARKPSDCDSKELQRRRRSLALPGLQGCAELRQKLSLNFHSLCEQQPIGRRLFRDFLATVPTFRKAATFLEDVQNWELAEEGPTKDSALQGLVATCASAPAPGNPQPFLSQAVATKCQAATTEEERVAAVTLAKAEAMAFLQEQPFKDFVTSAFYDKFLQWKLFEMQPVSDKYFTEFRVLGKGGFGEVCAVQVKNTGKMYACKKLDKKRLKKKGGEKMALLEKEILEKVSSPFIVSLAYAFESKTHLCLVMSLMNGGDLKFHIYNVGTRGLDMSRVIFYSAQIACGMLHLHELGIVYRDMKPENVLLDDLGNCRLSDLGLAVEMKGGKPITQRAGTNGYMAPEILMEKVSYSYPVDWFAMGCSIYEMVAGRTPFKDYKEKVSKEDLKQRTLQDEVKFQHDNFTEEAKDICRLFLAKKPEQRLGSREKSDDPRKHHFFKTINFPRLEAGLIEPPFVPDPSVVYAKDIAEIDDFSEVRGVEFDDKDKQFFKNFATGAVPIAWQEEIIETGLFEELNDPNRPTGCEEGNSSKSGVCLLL

[7] = molecular target: T7, panel of 442 kinases (Homo sapiens, UniProt P00533, G719C); settings: EGFR(G719C); for remaining activity at 1 µM: read-out: % of control at 1 µM
T7 construct: purchased Ambit Biosciences (scanMAXX KINOMEscan)

[8] = molecular target: T8, panel of 442 kinases (Homo sapiens, UniProt Q96BR1); settings: kinase SGK3; for remaining activity at 1 µM: read-out: SGK3 (% of control at 1 µM)
T8 construct: purchased Ambit Biosciences (scanMAXX KINOMEscan)
T8 sequence (Q96BR1 1-496): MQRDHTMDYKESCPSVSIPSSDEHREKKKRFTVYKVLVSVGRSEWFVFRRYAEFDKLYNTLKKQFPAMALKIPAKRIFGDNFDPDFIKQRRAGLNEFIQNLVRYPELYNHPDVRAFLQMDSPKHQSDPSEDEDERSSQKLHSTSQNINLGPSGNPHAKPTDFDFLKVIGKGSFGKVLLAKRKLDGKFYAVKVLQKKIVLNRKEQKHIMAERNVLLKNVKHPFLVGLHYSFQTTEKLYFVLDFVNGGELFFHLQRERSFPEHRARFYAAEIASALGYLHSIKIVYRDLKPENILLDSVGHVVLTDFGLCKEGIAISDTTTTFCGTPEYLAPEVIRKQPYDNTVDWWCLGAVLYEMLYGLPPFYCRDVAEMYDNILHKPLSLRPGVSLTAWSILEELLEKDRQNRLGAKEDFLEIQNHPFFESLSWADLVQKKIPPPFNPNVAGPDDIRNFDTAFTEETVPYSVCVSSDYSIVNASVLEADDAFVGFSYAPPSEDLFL

[9] = molecular target: T9, panel of 442 kinases (Homo sapiens, UniProt P11309); settings: kinase PIM1; for remaining activity at 1 µM: read-out: % of control at 1 µM
T9 construct: purchased Ambit Biosciences (scanMAXX KINOMEscan)

[10] = molecular target: T10, panel of 442 kinases (Homo sapiens, UniProt Q9C098); settings: DCAMKL3; for remaining activity at 1 µM: read-out: % of control at 1 µM
T10 construct: purchased Ambit Biosciences (scanMAXX KINOMEscan)

[11] = molecular target: T11, panel of 442 kinases (Homo sapiens, UniProt Q16288); settings: kinase TRKC; for remaining activity at 1 µM: read-out: TRKC (% of control at 1 µM)
T11 construct: purchased Ambit Biosciences (scanMAXX KINOMEscan)

[12] = 10 µM, read-out: % of control at 10 µM

T11 sequence (Q16288 32-839): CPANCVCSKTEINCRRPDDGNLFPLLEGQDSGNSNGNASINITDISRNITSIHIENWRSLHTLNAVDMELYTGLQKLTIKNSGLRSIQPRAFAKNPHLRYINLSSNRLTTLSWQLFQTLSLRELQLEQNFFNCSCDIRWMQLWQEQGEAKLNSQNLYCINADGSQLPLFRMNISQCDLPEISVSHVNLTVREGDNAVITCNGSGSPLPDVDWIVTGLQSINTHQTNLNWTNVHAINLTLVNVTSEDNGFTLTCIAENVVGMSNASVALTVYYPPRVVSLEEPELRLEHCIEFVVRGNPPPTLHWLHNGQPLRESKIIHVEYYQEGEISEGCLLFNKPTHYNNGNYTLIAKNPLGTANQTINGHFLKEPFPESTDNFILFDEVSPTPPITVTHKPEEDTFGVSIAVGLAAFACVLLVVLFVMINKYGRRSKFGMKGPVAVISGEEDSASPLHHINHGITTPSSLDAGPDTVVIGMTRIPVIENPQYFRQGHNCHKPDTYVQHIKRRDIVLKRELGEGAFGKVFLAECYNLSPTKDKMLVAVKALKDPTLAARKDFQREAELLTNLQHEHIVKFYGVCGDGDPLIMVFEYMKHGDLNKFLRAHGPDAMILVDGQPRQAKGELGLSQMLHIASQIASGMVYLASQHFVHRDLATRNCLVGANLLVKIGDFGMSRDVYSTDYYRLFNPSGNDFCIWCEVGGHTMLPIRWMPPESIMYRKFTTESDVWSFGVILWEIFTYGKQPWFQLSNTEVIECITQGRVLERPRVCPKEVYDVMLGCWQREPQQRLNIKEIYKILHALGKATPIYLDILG
T7 sequence (P00533 25-1210 G719C): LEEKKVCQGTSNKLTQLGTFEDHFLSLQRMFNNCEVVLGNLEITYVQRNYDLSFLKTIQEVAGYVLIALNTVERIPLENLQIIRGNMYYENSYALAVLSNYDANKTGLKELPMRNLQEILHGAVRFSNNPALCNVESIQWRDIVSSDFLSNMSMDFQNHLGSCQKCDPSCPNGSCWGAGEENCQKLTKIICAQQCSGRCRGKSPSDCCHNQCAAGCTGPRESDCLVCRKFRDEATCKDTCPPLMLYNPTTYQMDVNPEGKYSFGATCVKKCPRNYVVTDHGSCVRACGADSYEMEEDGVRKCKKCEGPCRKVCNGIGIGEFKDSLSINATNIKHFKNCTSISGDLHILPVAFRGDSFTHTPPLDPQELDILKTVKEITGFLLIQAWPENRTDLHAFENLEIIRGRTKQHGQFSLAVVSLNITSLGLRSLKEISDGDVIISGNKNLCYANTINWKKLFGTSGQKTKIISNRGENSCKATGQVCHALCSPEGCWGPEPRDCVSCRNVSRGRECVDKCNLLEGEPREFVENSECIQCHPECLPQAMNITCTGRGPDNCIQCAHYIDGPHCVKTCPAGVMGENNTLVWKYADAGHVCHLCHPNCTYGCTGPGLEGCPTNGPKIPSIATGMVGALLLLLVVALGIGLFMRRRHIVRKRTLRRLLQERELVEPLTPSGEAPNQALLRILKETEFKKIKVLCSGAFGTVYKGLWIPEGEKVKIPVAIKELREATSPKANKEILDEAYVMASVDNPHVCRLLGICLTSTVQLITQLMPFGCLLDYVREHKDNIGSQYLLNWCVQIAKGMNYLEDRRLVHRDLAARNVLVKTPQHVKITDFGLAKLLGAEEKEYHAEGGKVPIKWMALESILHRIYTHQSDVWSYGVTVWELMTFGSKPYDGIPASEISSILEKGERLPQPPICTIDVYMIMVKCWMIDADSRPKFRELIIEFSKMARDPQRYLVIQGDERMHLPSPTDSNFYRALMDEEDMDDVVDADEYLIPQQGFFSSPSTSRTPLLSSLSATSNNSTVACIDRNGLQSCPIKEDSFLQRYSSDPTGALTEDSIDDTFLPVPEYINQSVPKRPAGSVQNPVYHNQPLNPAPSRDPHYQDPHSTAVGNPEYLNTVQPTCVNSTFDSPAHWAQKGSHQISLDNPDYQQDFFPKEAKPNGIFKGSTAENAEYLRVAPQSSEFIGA
T5 sequence (Q9Y5S2 whole entry): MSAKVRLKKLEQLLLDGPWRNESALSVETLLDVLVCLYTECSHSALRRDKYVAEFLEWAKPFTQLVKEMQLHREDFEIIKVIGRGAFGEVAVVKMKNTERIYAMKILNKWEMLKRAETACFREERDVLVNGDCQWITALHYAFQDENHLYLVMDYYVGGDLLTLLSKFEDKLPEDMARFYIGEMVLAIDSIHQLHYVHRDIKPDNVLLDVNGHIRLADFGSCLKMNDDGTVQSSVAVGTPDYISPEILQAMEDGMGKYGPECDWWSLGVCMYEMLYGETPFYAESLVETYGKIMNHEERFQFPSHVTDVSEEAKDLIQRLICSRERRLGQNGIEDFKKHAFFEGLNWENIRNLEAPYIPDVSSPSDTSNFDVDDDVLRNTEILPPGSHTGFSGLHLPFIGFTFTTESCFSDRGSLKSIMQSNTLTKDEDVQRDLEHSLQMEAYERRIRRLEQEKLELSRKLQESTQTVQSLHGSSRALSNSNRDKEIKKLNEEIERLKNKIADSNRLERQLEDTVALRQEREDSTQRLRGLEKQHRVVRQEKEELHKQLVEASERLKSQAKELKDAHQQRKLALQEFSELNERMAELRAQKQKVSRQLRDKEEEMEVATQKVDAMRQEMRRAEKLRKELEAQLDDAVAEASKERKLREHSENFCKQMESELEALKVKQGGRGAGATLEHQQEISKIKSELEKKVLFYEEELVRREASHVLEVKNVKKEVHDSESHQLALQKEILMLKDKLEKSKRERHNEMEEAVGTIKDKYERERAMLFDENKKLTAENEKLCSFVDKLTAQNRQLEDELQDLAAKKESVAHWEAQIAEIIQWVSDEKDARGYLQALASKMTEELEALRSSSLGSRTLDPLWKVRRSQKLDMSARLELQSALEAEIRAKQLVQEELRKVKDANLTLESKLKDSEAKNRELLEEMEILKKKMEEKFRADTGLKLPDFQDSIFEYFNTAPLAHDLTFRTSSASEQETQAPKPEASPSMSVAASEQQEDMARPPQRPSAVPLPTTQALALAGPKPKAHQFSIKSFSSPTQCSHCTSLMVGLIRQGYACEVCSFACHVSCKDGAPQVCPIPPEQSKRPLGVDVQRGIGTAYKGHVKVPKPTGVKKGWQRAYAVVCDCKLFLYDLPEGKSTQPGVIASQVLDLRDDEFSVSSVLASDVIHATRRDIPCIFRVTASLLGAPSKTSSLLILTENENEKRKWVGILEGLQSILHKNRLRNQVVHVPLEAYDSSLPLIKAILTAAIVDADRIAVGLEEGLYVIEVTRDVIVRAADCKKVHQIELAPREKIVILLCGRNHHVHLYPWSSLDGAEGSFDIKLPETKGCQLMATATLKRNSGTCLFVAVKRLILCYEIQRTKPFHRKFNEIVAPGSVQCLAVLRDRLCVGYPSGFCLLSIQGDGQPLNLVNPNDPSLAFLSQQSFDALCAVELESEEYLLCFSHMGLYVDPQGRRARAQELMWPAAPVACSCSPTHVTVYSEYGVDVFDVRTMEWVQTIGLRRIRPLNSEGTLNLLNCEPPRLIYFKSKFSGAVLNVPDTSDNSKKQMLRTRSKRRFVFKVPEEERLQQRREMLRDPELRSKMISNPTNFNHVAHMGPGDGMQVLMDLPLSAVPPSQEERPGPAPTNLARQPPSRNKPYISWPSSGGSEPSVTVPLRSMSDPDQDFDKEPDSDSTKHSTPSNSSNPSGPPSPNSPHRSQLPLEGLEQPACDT
T9 sequence (P11309 whole entry): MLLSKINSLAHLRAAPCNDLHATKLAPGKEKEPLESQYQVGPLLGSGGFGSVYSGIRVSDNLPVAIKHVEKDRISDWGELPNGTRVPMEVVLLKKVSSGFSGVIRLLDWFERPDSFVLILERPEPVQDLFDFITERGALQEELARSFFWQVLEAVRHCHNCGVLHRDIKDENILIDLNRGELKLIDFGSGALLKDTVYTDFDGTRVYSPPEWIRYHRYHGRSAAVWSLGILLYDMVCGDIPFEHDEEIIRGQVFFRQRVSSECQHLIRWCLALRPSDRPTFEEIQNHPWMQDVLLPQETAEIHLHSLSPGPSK
T10 sequence (Q9C098 whole entry): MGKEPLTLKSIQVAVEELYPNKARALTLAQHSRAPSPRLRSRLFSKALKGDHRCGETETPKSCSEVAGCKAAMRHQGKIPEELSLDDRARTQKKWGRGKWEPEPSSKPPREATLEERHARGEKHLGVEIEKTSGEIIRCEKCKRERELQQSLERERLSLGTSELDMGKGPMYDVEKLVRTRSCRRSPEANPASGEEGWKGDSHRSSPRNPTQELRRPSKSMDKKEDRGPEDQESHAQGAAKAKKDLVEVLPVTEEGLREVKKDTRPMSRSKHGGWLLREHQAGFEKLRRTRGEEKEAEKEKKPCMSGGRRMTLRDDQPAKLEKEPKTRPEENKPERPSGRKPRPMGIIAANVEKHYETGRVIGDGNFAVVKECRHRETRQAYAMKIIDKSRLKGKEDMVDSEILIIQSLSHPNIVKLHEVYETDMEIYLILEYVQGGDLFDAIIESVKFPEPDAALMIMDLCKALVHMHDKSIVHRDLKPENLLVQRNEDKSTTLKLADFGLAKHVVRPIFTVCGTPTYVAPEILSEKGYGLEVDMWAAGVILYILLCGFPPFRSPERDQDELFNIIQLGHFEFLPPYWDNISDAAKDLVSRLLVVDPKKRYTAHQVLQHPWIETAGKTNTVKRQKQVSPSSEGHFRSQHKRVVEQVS
T3 sequence (P19784 whole entry): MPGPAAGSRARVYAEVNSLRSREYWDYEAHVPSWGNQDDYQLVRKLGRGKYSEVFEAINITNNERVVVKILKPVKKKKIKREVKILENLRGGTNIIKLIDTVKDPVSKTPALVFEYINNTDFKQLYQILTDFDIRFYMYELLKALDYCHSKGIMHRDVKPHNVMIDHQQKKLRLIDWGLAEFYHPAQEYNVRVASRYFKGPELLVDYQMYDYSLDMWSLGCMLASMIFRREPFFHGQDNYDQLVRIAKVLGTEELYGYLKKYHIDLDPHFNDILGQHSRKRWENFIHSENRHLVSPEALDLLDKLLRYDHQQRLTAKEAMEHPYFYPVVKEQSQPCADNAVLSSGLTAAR

| Compound | remaining activity at 1 µM [1] [%] | remaining activity at 1 µM [2] [%] | remaining activity at 1 µM [3] [%] | remaining activity at 1 µM [4] [%] | remaining activity at 1 µM [5] [%] | remaining activity at 1 µM [6] [%] | remaining activity at 1 µM [7] [%] | remaining activity at 1 µM [8] [%] | remaining activity at 1 µM [9] [%] | remaining activity at 1 µM [10] [%] | remaining activity at 1 µM [11] [%] | also measured |
| --- | --- | --- | --- | --- | --- | --- | --- | --- | --- | --- | --- | --- |
| Nc1cc(C(F)(F)F)c(-c2cc(N3CCOCC3)nc(N3CCOCC3)n2)cn1 [Buparlisib] | 86 | 100 | 84 | 100 | 100 | 77 | 84 | 79 | 87 | 100 | 76 | remaining activity at 10 µM [1, 12]: 88%; remaining activity at 10 µM [2, 12]: 100%; remaining activity at 10 µM [3, 12]: 75%; remaining activity at 10 µM [4, 12]: 100%; remaining activity at 10 µM [5, 12]: 100%; remaining activity at 10 µM [6, 12]: 100%; remaining activity at 10 µM [7, 12]: 83%; remaining activity at 10 µM ([8]; 10 µM, read-out: SGK3 (% of control at 10 µM)): 100%; remaining activity at 10 µM [9, 12]: 100%; remaining activity at 10 µM [10, 12]: 100%; remaining activity at 10 µM ([11]; 10 µM, read-out: TRKC (% of control at 10 µM)): 76% |
| Cn1c(=O)n(-c2ccc(C(C)(C)C#N)cc2)c2c3cc(-c4cnc5ccccc5c4)ccc3ncc21 [Dactolisib, 2-methyl-2-[4-(3-methyl-2-oxo-8-quinolin-3-yl-2,3-dihydroimidazo[4,5-c]quinolin-1-yl)-phenyl] propionitrile] | 83 | 79 | 99 | 100 | 86 | 92 | – | 100 | 100 | 100 | 85 | – |
| COc1ncc(-c2ccc3nccc(-c4ccnnc4)c3c2)cc1NS(=O)(=O)c1ccc(F)cc1F [Omipalisib] | 100 | 100 | 75 | 100 | 100 | 100 | 100 | 92 | 100 | 100 | 100 | – |
| FC(F)c1nc2ccccc2n1-c1nc(N2CCOCC2)nc(N2CCOCC2)n1 [ZSTK474, 2-(difluoromethyl)-1-[4,6-di(4-morpholinyl)-1,3,5-triazin-2-yl]-1H-benzimidazole] | 100 | 100 | 88 | 100 | 80 | 98 | 97 | 87 | 100 | 100 | 100 | – |
